Laboratory results taken from article PMC9230201, “Sustained Consumption of a Decaffeinated Green Coffee Nutraceutical Has Limited Effects on Phenolic Metabolism and Bioavailability in Overweight/Obese Subjects” (Nutrients, 2022).

How the values were obtained:
[1] = Fecal excretion of phenolic metabolites after intake of the GCPE nutraceutical; details: feces
Description: Participants attended the Human Nutrition Unit (HNU) at the Institute of Food Science, Technology and Nutrition (ICTAN-CSIC) on two consecutive days at the beginning of the intervention (week 0) and also on two consecutive days at the end of the study, after consuming daily two doses of the GCPE nutraceutical, providing 600 mg/d phenols, during two months (week 8). […] A licensed health care professional placed an intravenous catheter in the subjects′ nondominant arm and collected a fasting blood sample (baseline, 0 h). Then, subjects drank the soluble GCPE nutraceutical dissolved in 200 mL of water. […] On the sampling days, volunteers remained at the HNU, where a (poly)phenol-free diet was provided. Half an hour after consuming the nutraceutical, volunteers ate a breakfast consisting of ham, cheese, white bread, and a yogurt. Lunch (paella, bread, and yogurt) and an afternoon snack (muffin and yogurt) were eaten 5 and 9 h, respectively, after consuming the nutraceutical. Water and isotonic beverages were freely available. […] The same protocol was followed during visits at the end of the 8-week intervention. On each occasion, two days before each visit to the HNU, subjects consumed a low (poly)phenol diet free of foods containing hydroxycinnamates such as coffee, herbal teas, red wine, artichokes, whole grain cereals, vegetables, fruits and fruit juices, and dried fruits. Only banana, watermelon, cantaloupes, and potatoes were allowed.
Blood samples were immediately centrifuged (10 min, 3000 rpm, 4 °C) to obtain plasma. […] All biological samples were stored at −80 °C until analysis.
To extract plasma metabolites, 10 µL of 50% (v/v) aqueous formic acid, and 900 µL cold acetonitrile containing 50 µL of 10% (w/v) ascorbic acid were added to 400 µL defrosted plasma. Samples were vortexed and centrifuged (14,000 rpm, 10 min, 4 °C), repeating the extraction and combining the two supernatants, which were reduced to dryness under nitrogen [13]. Dried samples were resuspended in 150 µL of 0.1% aqueous formic acid (containing 10% acetonitrile acidified with 0.1% formic acid), centrifuged (15 min, 14,000 rpm, 4 °C), and the supernatant collected. Urine samples were diluted 1:1 with Milli-Q water and centrifuged (14,000 rpm, 20 min, 4 °C) prior to analysis. Phosphate-buffered saline (3 mL) was added to a representative 300 mg sample of thawed feces, homogenized in an ultrasound bath during 10 min, centrifuged (14,000 rpm, 20 min, 4 °C), and the supernatants collected.
Mobile phase A was 0.1% formic acid in Milli-Q water, and mobile phase B was acetonitrile containing 0.1% formic acid at a 0.3 mL/min flow rate. […] Metabolites were identified based on their retention time using authentic standards when possible. […] Urine concentration of excreted metabolites was normalized to the total volume excreted in each studied interval.
Plasma (30 µL), urine (5 µL) and fecal extracts (5 µL) were filtered through 0.45 µm
cellulose-acetate membrane filters and injected into an Agilent 1200 series LC system
ESI-Jet Stream Technology (Agilent Technologies). A reverse-phase Ascentis Express
C18 (15 cm x 3 mm, 2.7 µm) column (Sigma-Aldrich Quimica, Madrid), preceded by a
phase A was 0.1% formic acid in Milli-Q water, and mobile phase B was acetonitrile
containing 0.1% formic acid at a 0.3 mL/min flow rate. The gradient started with 10% B
at 0 min, 30% B at 10 min, 40% B at 15 min, reaching 50% B at 20 min. The starting
gradient was then re-established in 2 min and maintained for 8 min to re-equilibrate the

[2] = Plasma pharmacokinetics of phenolic metabolites after intake of the GCPE nutraceutical (LC-MS-QToF); details: human, oral; for AUC(0-t) / Tmax: 300 mg hydroxycinnamic acids; for AUC(0-t): AUC0–24h; for Tmax: Tmax (h) or Range; for Cmax: 300 mg, mean ± SEM, n = 9
[3] = Urinary excretion of phenolic metabolites after intake of the GCPE nutraceutical; details: for Urinary excretion / Cumulative urinary excretion, Total 0–24 h: urine; for Cumulative urinary excretion, Total 0–24 h: mean ± SEM, n = 9
[4] = week 0, first peak where biphasic
[5] = week 8, first peak where biphasic
[6] = week 0, GCPE nutraceutical with 300 mg hydroxycinnamic acids
[7] = week 8, GCPE nutraceutical with 300 mg hydroxycinnamic acids

SMILES	Amount of fecal metabolite excreted at 0 h ([1]; week 0, mean ± SEM, n = 9) [µmol/g]	Amount of fecal metabolite excreted at 0 h ([1]; week 8) [µmol/g]	Amount of fecal metabolite excreted at 24 h ([1]; week 0) [µmol/g]	Amount of fecal metabolite excreted at 24 h ([1]; week 8) [µmol/g]	AUC(0-t) ([2]; week 0) [µM·h]	AUC(0-t) ([2]; week 8) [µM·h]	Tmax [2, 4] [h]	Tmax [2, 5] [h]	Cmax [2, 6] [nM]	Cmax [2, 7] [nM]	Cumulative urinary excretion, Total 0–24 h ([3]; week 0) [µmol]	Cumulative urinary excretion, Total 0–24 h ([3]; week 8) [µmol]	Amount excreted in urine, 0- 3 h ([3]; week 0, interval 0–3 h) [µmol]	Amount excreted in urine, 3-6 h ([3]; week 0, interval 3–6 h) [µmol]	Amount excreted in urine, 6-9 h ([3]; week 0, interval 6–9 h) [µmol]	Amount excreted in urine, 9-11 h ([3]; week 0, interval 9–11 h) [µmol]	Amount excreted in urine, 11-24 h ([3]; week 0, interval 11–24 h) [µmol]	Amount excreted in urine, 0- 3 h ([3]; week 8, interval 0–3 h) [µmol]	Amount excreted in urine, 3-6 h ([3]; week 8, interval 3–6 h) [µmol]	Amount excreted in urine, 6-9 h ([3]; week 8, interval 6–9 h) [µmol]	other results
O=C(O)CCc1ccc(O)c(O)c1 [DHCA, 3-(3′,4′-Dihydroxyphenyl)propanoic acid]	0.011 ± 0.007	0.005 ± 0.002	0.008 ± 0.006	0.0001 ± 0.0001	2 ± 0.6	2.1 ± 0.5	10.2 ± 0.3	9.4 ± 0.5	220 ± 60	220 ± 50	16 ± 2	31 ± 5	0.5 ± 0.1	0.37 ± 0.09	2.3 ± 0.8	2.7 ± 0.6	7 ± 1	1 ± 0.4	1.4 ± 0.4	3.8 ± 0.9	Urinary excretion ([3]; week 0): 16 µmol/24 h; Urinary excretion ([3]; week 8): 31 µmol/24 h; Amount excreted in urine, TOTAL ([3]; week 0, Table S5 total): 16 ± 2 µmol; Amount excreted in urine, 0 h ([3]; week 8, 0 h (before intake on sampling day)): 15 ± 4 µmol; Amount excreted in urine, TOTAL ([3]; week 8, Table S6 total): 31 ± 5 µmol; Amount excreted in urine, 9-11 h ([3]; week 8, interval 9–11 h): 3.1 ± 0.8 µmol; Amount excreted in urine, 11-24 h ([3]; week 8, interval 11–24 h): 6 ± 2 µmol
COc1cc(CCC(=O)O)ccc1O [DHFA, 3-(4′-Hydroxy-3′-methoxyphenyl)propanoic acid]	0.013 ± 0.004	0.018 ± 0.003	0.019 ± 0.007	0.014 ± 0.003	2.2 ± 0.6	1.8 ± 0.3	7.6 ± 0.4	8.4 ± 0.6	300 ± 100	250 ± 60	0.5 ± 0.2	1.1 ± 0.4	0.03 ± 0.02	0.007 ± 0.007	0.08 ± 0.04	0.05 ± 0.02	0.11 ± 0.05	0.08 ± 0.07	0.03 ± 0.02	0.07 ± 0.05	Amount excreted in urine, 9-11 h ([3]; week 8, interval 9–11 h): 0.09 ± 0.04 µmol; Amount excreted in urine, 11-24 h ([3]; week 8, interval 11–24 h): 0.07 ± 0.04 µmol
